Measurements taken from patent EP0215063B1, “PYRIDO (2,3-d )PYRIMIDIN DERIVATIVES” (priority 1985, dated 1986).
pIC50: −log10 of the molar value. Where “and” joins values, the source holds several entries; their conditions need not be identical. Identical values can stand only once. Like-named read-outs stand apart in the source and are kept apart here.

Assays:
[1] = literature; cited from earlier work
[2] = target: T1, Folate Polyglutamate Synthetase (Mus musculus, UniProt P48760); conditions: relative to folic acid; published data (Moran et al.); cited from earlier work
T1 construct: Incubation with partially purified mouse liver FPGS; from tissue; host or cells: mouse liver
T1 sequence (P48760 43-587): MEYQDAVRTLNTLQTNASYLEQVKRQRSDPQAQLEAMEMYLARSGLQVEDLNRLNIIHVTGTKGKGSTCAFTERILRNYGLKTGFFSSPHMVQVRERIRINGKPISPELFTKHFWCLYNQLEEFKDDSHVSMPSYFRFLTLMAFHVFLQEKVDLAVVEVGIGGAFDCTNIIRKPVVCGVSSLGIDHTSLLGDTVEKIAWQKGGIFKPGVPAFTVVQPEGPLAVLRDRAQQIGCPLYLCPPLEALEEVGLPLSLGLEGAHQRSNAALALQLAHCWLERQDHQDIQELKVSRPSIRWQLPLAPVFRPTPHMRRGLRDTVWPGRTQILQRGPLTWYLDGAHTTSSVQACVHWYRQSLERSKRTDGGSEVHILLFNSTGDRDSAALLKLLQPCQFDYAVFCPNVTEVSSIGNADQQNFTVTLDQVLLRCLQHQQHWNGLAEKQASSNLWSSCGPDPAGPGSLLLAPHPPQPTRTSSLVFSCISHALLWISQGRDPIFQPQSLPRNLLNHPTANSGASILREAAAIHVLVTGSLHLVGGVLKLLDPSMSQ

[3] = target: T2, Dihydrofolate Reductase (DHFR) (Homo sapiens, UniProt P00374); test: Inhibition of Dihydrofolate Reductase (DHFR); assay type: biochemical
T2 sequence (P00374 1-187): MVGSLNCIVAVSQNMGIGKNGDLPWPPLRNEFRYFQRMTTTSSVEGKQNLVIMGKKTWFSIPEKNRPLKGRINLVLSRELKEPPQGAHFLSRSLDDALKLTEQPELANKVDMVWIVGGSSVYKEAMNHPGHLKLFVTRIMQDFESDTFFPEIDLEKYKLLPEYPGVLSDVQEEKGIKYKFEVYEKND

[4] = target: T1, Folate Polyglutamate Synthetase; test: Substrate for Folate Polyglutamate Synthetase (partially purified mouse liver FPGS); assay type: biochemical
[5] = system: L1210 murine leukemic cells; test: Inhibition of L1210 murine leukemic cells in tissue culture; assay type: cell-based; conditions: Mus musculus, read-out: IC₅₀
L-1210 leukemia = test: Increase in life span, % ILS (Table 5, title only as image); assay type: in vivo
[6] = system: Methotrexate-Resistant L-1210 Leukemia; test: Effect on Methotrexate-Resistant L-1210 Leukemia; assay type: in vivo; conditions: for Mean Increased Life span in days: in vivo
[7] = system: X5563 Plasma Cell Myeloma; conditions: mouse, in vivo
6C3HED Lymphosarcoma = test: Subcutaneous tumor growth inhibition in mice; conditions: mouse, in vivo
B-16 = test: Subcutaneous tumor growth inhibition in mice; conditions: mouse, in vivo
[8] = system: C3H Mammary Adenocarcinoma; test: Subcutaneous tumor growth inhibition in mice; conditions: mouse, in vivo
Lewis Lung Carcinoma = test: Subcutaneous tumor growth inhibition in mice; conditions: mouse, in vivo
Madison Lung = test: Subcutaneous tumor growth inhibition in mice; conditions: mouse, in vivo
mouse L1210 leukemia = conditions: literature; cited from earlier work
[9] = literature (Taylor et al.); cited from earlier work
dihydrofolate reductase = target: T3, dihydrofolate reductase (Homo sapiens, UniProt P00374); conditions: literature (De Graw et al.); cited from earlier work
T3 sequence (P00374 1-187): T2 sequence (P00374 1-187)

[10] = relative to folic acid, one hour at 37°C

Nc1nc(N)c2nc(CCc3ccc(C(=O)N[C@@H](CCC(=O)O)C(=O)O)cc3)ccc2n1 [8,10-Dideazaaminopterin]
antimetabolic activity (in words) [1]: active

Nc1nc2c(c(=O)[nH]1)NC(CNc1ccc(C(=O)N[C@@H](CCC(=O)O)C(=O)O)cc1)CN2 (some centres unmarked) [FH4]
Rel Vmax [2]: 1.31 ± 0.07

Nc1nc(N)c2c(n1)NCC(CCc1ccc(C(=O)N[C@@H](CCC(=O)O)C(=O)O)cc1)C2 (stereo partly drawn) [Compound 3, N-(4-[2-(2,4-diamino-5,6,7,8-tetrahydropyrido[2,3-d]pyrimidin-6-yl)ethyl]benzoyl)-L-glutamic acid]
pIC50 [3]: 7.15
Rel Vmax [4, 10]: 1.61 ± 0.05
pIC50 [5]: 8.48
% ILS (L-1210 leukemia; dose 1 mg/kg): 111%

Nc1nc(N)c2nc(CCc3ccc(C(=O)N[C@@H](CCC(=O)O)C(=O)O)cc3)cnc2n1 [10-Deaza-aminopterin]
antimetabolic activity (in words) [1]: highly active

Nc1nc2c(c(=O)[nH]1)CC(CCc1ccc(C(=O)N[C@@H](CCC(=O)O)C(=O)O)cc1)CN2 (stereo partly drawn) [Compound 4, N-(4-[2-(2-amino-4-hydroxy-5,6,7,8-tetrahydropyrido[2,3-d]pyrimidin-6-yl)ethyl]benzoyl)-L-glutamic acid]
inhibition of dihydrofolate reductase (in words) [3]: weak inhibitor
Rel Vmax [4]: 1.24 ± 0.10
activity against L-1210 leukemia (in words) (L-1210 leukemia; in vivo): good activity
% ILS (L-1210 leukemia; in vivo, 2 mg/kg): 27%
% ILS (L-1210 leukemia; in vivo, 4 mg/kg): 35%
% ILS (L-1210 leukemia; in vivo, 8 mg/kg): 59%
% ILS (L-1210 leukemia; in vivo, 12 mg/kg): 63%
Mean Increased Life span in days ([6]; 2 mg/kg): +8 days
Mean Increased Life span in days ([6]; 4 mg/kg): +11 days
Mean Increased Life span in days ([6]; 8 mg/kg): +17 days
Mean Increased Life span in days ([6]; 12 mg/kg): +25 days
% INHIBITION [7]: 100%
toxicity (footnote) [7]: † Toxic
% INHIBITION (6C3HED Lymphosarcoma): 91% and 100%
% INHIBITION (B-16): 98% and 99% and 100%
% INHIBITION [8]: 86% and 100%
% INHIBITION (Lewis Lung Carcinoma): 58% and 77% and 94% and 100%
% INHIBITION (Madison Lung): 54% and 72% and 87% and 90%

Nc1nc2ncc(CCc3ccc(C(=O)N[C@@H](CCC(=O)O)C(=O)O)cc3)nc2c(=O)[nH]1 [10-deazafolic acid]
antimetabolic activity (in words) [1]: no significant activity

Nc1nc2ccc(CCc3ccc(C(=O)N[C@@H](CCC(=O)O)C(=O)O)cc3)cc2c(=O)[nH]1 [5,8,10-trideazafolic acid]
activity against mouse L1210 leukemia (in words) (mouse L1210 leukemia): only marginal activity

Nc1nc(N)c2cc(CCc3ccc(C(=O)N[C@@H](CCC(=O)O)C(=O)O)cc3)cnc2n1 [Compound 1, N-(4-[2(2,4-diaminopyrido[2,3-d]-pyrimidin-6-yl)ethyl]benzoyl)-L-glutamic acid]
pIC50 [3]: 7.37
Rel Vmax [4, 10]: 0.35 ± 0.02
pIC50 [5]: 7.77
% ILS (L-1210 leukemia; dose 4 mg/kg): 130%

CN(Cc1cnc2nc(N)nc(N)c2n1)c1ccc(C(=O)N[C@@H](CCC(=O)O)C(=O)O)cc1 [Methotrexate, methotrexate, reference compound]
Mean Increased Life span ([6]; dose 2 mg/kg): 0 days

Nc1nc(N)c2cc(CCc3ccc(C(=O)N[C@@H](CCC(=O)O)C(=O)O)cc3)ccc2n1 [5,8,10-trideazaaminopterin]
activity against mouse L1210 leukemia (in words) (mouse L1210 leukemia): exhibits activity

Nc1nc(O)c2cc(CCc3ccc(C(=O)N[C@@H](CCC(=O)O)C(=O)O)cc3)cnc2n1 [Compound 2, N-(4-[2-(2-amino-4-hydroxypyrido[2,3-d]pyrimidin-6-yl)ethyl]benzoyl)-L-glutamic acid]
pIC50 [3]: 4.31
Rel Vmax [4, 10]: 0.90 ± 0.10
pIC50 [5]: < 4.00

Nc1nc2ncc(CNc3ccc(C(=O)N[C@@H](CCC(=O)O)C(=O)O)cc3)cc2c(=O)[nH]1 [5-Deazafolic acid]
cytotoxicity (in words) [9]: only weakly cytotoxic

Nc1nc2ccc(CCc3ccc(C(=O)N[C@@H](CCC(=O)O)C(=O)O)cc3)nc2c(=O)[nH]1 [8,10-Dideazafolic acid]
effectiveness as a dihydrofolate reductase inhibitor (in words) (dihydrofolate reductase): only marginally effective
